Source: patent US20240345090A1, “EARLY DETECTION OF INNATE IMMUNE DYSFUNCTION AND TREATMENT OF CONDITIONS ASSOCIATED THEREWITH” (UNIVERSITY OF FLORIDA RESEARCH FOUNDATION, INCORPORATED, priority 2021, published 2024)
Entries after “also recorded” stand apart in the source; their conditions may differ.

Legend:
CD14+ monocytes [1] = experiment: Flow cytometry count of TH+ monocytes after in vitro treatment; type: cell-based, human; conditions: 4 hours, TNFα 17 ng/ml; for number of TH+ monocytes, fold change relative to vehicle: healthy donor monocytes, 2 million per well, TPA 100 ng/ml, IL6 17 ng/ml, XPro1595 50 ng/ml, n=3 per group
Protocol: Monocytes were isolated from total PBMCs prepared as described above^51 using negative selection (Biolegend, 480048) per manufacturer's instructions. Total PBMCs were Fc-blocked to reduce nonspecific binding, followed by incubations with biotin-conjugated antibody cocktail containing antibodies against all subsets except CD14 (negative selection), followed by incubation with magnetic-Avidin beads, allowing all subsets other than CD14+ monocytes to be bound to the magnet. Monocyte purity/enrichment was routinely verified to confirm that the final cell population was greater than 95% pure CD14+ cells (FIG. S2). CD14+ monocytes were collected from the supernatant fraction, washed, counted and density adjusted such that 2 million CD14+ monocytes were seeded per well (FIG. 5A) and treated for 4 hours with vehicle, TPA (100 ng/ml, Biolegend, 755802)^7, TNFα (17 ng/mL, Biolegend, 570102)^61, XPro1595 (50 ng/ml), or IL6 (17 ng/mL) in an ultra-low-adherence 6-well plate (Corning, 3471) to prevent adherence. Suspended cells from each treatment group were aspirated and placed in a 15 ml conical tube, with any remaining adherent cells detached by incubation with 700 uL Accumax solution for 3 minutes (Innovative Cell Technologies, AM105) and added to suspended cells. After pelleting cells by centrifugation (3 minutes×100 g, room temperature), cells were assayed by either flow cytometry^51 or lysed for ELISA as stated above (“Preparation of cell lysates”).
As previously published^51, cells for flow cytometry were fixed and permeabilized (eBioscience, 88-8824-00), and stained for intracellular marker TH (Millipore-Sigma, AB152, 1:100) followed by a species-specific secondary (anti-Rabbit BV421, BD, 565014). After resuspending the sample in a final volume of 250 uL PBS, 5 uL of Invitrogen CountBright Absolute Counting Beads (5000 beads/mL, Invitrogen, C36950) were added just prior to data acquisition (Sony Spectral Analyzer, SP6800). […]

[2] = test system: TH protein in human monocytes; experiment: TH Bio-ELISA on lysates of treated monocytes; type: cell-based; conditions: healthy donor monocytes, 4 hours; TNFα 17 ng/ml, IL6 17 ng/ml, XPro1595 50 ng/ml
Protocol: Adherent cells in culture were lifted using 0.02% EDTA in PBS, diluted with 5 volumes of PBS, and centrifuged at 100×g. Non-adherent cells (PC12) were centrifuged at 100×g for 5 minutes at room temperature, and cell pellets were washed 3 times with 5 volumes of sterile PBS. Primary macrophages and primary murine neuron cultures were washed thrice with ice-cold PBS, on ice. Cell pellets and adherent primary cells were then lysed in ice-cold lysis buffer (10 mM NaCl, 10% glycerol (v/v), 1 mM EDTA, 1 mM EGTA, and HEPES 20 mM, pH 7.6), with Triton X-100 added to a final concentration of 1%, containing 1× protease inhibitor cocktail (Millipore-Sigma, 539131) for one hour at 4° C. with rotation. Resulting lysate was centrifuged at 12,000×g for 15 minutes at 4° C. Supernatant was set aside for protein quantification by Lowry assay (Biorad, 5000112) and the remainder was stored at −80° C. until use for downstream assays.
Antibodies used for ELISA are described in Table 4. […]
Duplicate standard and sample wells were averaged, and background-subtracted based on blank wells. The concentration of TH for each experimental group was calculated using a quadratic curve equation calculated in Graphpad Prism 8, then normalized to total protein concentration per sample as calculated using the Lowry assay. […]

CD14+ monocytes [3] = experiment: Intracellular flow cytometry for Ki67 (cell proliferation); type: cell-based, human; conditions: TNFα treated monocytes
Protocol: To control for donor variability, identical quantities of counting beads were added as a reference. The number of TH+ monocytes was quantified by flow cytometry (FIG. 6B, left) in two experimental groups: TPA-treated and TNFα-treated. Monocytes in each condition were gated to isolate single cells expressing TH (FIG. 6B). […] A possible mechanism for this observation is either monocyte proliferation during the treatment period or an altered monocyte phenotype in response to TNFα, with no change in total number of monocytes. In other words, following TNFα treatment, TH+ monocytes may either be increasing in number (proliferation) or existing monocytes upregulate TH expression and become TH+ (phenotypic change). While a four-hour exposure to TNFα is an insufficient time period to induce proliferative events in immune cells^74, these possibilities could not be confidently ruled out without additional analyses. Therefore, monocyte proliferation was quantified by comparing the total number of monocytes per microliter of untreated vs. TNFα treated experimental group. […] A more rigorous approach was conducted to assess Ki67 expression as a measure of cell proliferation^87. […] While this finding explains our earlier observation of increased numbers of TH+ cells, the potential phenotypic shift following TNFα mediated immune stimulation was an unpredicted and novel finding.

monocytes = experiment: Monocyte viability at different TNFα treatment durations; type: cell-based, human
Protocol: There is strong evidence in the literature for increased TNFα in PD^27,34-36 including in the brain, cerebrospinal fluid, and serum of Parkinson's patients^27 as well as in Parkinsonian mice^37,38. […] Therefore, the hypothesis that ex vivo stimulation of monocytes from healthy subjects with TNFα stimulates TH expression was tested, as measured by changes in the number of TH-expressing monocytes, and/or the amount of TH per monocyte. Flow cytometry was employed to address the former, and bio-ELISA to address the latter. Two million monocytes isolated from whole blood of healthy donors were treated for 4 hours with tissue plasminogen activator (TPA, 100 ng/ml, positive control for increased monocyte TH expression^7), TNFα (17 ng/mL)^61 and compared with monocytes treated with vehicle (FIG. 6A). Monocytes were assayed for TH expression by two complementary methods: flow cytometry^51 (FIG. 6B-F) and ELISA (FIG. 6G-H). It is noted that because a prolonged TNFα exposure can induce cell toxicity^82-86, multiple treatment durations were tested. […] Therefore, a 4-hour treatment strategy was selected in this study.

| Substance | number of TH+ monocytes, fold change relative to vehicle (CD14+ monocytes [1]) | TH concentration (picogram per milligram total protein) relative to vehicle [2] | total number of monocytes per microliter, untreated vs. treated (CD14+ monocytes [1]) | Ki67 expression relative to vehicle-treated controls (CD14+ monocytes [3]) | cell viability (monocytes; 4-hour TNFα (17 ng/ml) treatment) | cell viability (monocytes; longer TNFα exposure (more than 4 hours)) |
| --- | --- | --- | --- | --- | --- | --- |
| IL6: interleukin-6 (IL6), a cytokine with pleiotropic effects | no significant change in the number of TH+ monocytes | Neither IL6 nor IL6+XPro1595 significantly increased TH quantity | – | – | – | – |
| TNFα | significant increases in TH-expressing monocytes relative to vehicle | significantly increased the amount of TH protein; also recorded: significantly increases | unchanged | no change in Ki67 expression | minimal effect on cell viability | substantially decreased cell viability |
